Assay results reported in US20110173718A1, “HERBICIDE TOLERANT PLANTS” (SYNGENTA CROP PROTECTION, INC., priority 2008, published 2011).

Columns and labels:
[1] = test system: HST in spinach chloroplast extract; experiment: HST assay (TLC, MFBQ formed), spinach chloroplast extract; type: biochemical; conditions: 25 ppm; TLC, estimated amount of MFBQ formed, relative to controls
Protocol: HST enzyme preparations for assay are also prepared directly from fresh plant material. For example HST enzyme preparations are from spinach. In the first step intact spinach chloroplasts are prepared from two lots of 500 g of fresh baby spinach leaves (e.g from the salad section of the local supermarket). Prepacked spinach is usually already washed, but if buying loose leaves these must be rinsed in water before proceeding. Stalks, large leaves and mid-ribs are removed. Each 500 g lot of leaves is added to 1.5 l of ‘Grinding medium’ in a 2 L plastic beaker. Grinding medium is cold (4° C.) 50 mM Tricine/NaOH buffer at pH 7.1 containing 330 mM glucose, 2 mM sodium isoascorbate, 5 mM MgCl2 and 0.1% bovine serum albumen The beaker, kept at 4° C., is placed under a Polytron 6000 blender, fitted with a 1.5″cutting probe and the mixture blended in short bursts of 5-8 sec up to 8-10K rpm until all the leaves are macerated. The homogenate is filtered into a 5 L beaker (embedded in an ice bucket) through four layers of muslin, and two layers of 50μ mesh nylon cloth. The filtrate is transferred to 250 ml buckets of a Beckman GS-6 centrifuge and spun at […] (3020 rpm) for 2 min at 4° C. The supernatant is drained away and discarded to leave a sediment of chloroplasts. Chloroplasts are resuspended in a few ml of cold resuspension medium by gentle swirling and gentle use of a quill brush soaked in resuspension medium. Resuspension medium is 50 mM Hepes/KOH pH 7.8 containing 330 mM sorbitol, 2 mM EDTA, 5 mM KH2PO4, 2 mM MgCl2 and 0.1% bovine serum albumen at 4° C. The chloroplasts are resuspended in 5-10 ml of resuspension buffer, recentrifuged down and resuspended again in order to wash them. The chloroplasts are then once again centrifuged down and then broken by resuspension in about 5 ml of 50 mM Tricine-NaOH pH 7.8 to a protein concentration of about 40 mg/ml. The solution is stored frozen at −80° C. in aliquots. This resuspension is defrosted and used directly in HST activity assays. Alternatively, chloroplasts are prepared resuspended in 50 mM Tris/HCl buffer at pH 7.8 containing 330 mM sorbitol (alternative resuspension buffer) and layered on top of a percol gradient (comprising the same buffer containing 45% percol), spun down, the intact chloroplast fraction taken and washed 2 or 3 times in the alternative resuspension buffer and then spun down again, resuspended in breaking buffer (without sorbitol), flash frozen and stored in aliquots at −80° C.
(§1) Prenyltransferase (HST) activities are measured by determining the prenylation rates of [U—^14C]homogentisate using farnesyl diphosphate (FDP) as prenyl donor. ^14C homogentisate is prepared from ^14C tyrosine using L amino acid oxidase and HPPD. For inhibitor testing, compounds are dissolved in dimethylsulfoxide (DMSO). DMSO added at up to 2% v/v has no effect on assays. Control assays contain DMSO at the same concentration as in inhibitor containing assays.
Assays using spinach chloroplast extracts (100 μl final volume) contain up to 2 mg of chloroplast protein, 50 mM Tricine-NaOH pH 8.5, 50 mM MgCl2, 200 μM farnesyl diphosphate (FDP) and 26 μM ^14C-homogentisate (167 dpm/pmol). Assays are run for about an hour at 28° C. […] Lipophilic reactions products are extracted and analyzed essentially as described in the literature.
Using the above assays percentage inhibition of the amount of MFBQ formed at a range of doses of inhibitors relative to the control amount obtained with no inhibitor present is reported (Table 1). The better inhibitors give greater percentage inhibition at lower doses.

Chlamydomonas HST = target: T1, Chlamydomonas HST (Chlamydomonas reinhardtii, UniProt A1JHN0); experiment: HST assay (TLC, MFBQ formed), recombinant Chlamydomonas HST in E. coli membranes; type: biochemical; conditions: 25 ppm, TLC, estimated amount of MFBQ formed, relative to controls; for inhibition at 25 ppm: read-out: Chlamydomonas. HST % I at 25 ppm
T1 construct: GST (N); made in house; host or cells: E. coli (BL21A1 / BL21DE3), membrane fraction
T1 sequence (A1JHN0 51-370): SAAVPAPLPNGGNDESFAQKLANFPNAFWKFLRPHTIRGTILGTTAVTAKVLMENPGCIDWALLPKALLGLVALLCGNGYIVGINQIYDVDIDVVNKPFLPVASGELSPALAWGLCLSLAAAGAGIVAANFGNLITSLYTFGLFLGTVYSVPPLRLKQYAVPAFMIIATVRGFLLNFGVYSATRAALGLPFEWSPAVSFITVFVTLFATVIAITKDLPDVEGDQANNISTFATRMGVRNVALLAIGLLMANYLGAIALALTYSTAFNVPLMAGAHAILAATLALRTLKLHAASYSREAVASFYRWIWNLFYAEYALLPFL
Protocol: Alternatively, Arabidopsis and Chlamydomonas mature HST coding sequences are cloned as GST N-terminal fusion enzymes and expressed in E. coli.
E. coli. BL21A1 cells expressing mature Arabidopsis or Chlamydonionas HST as a GST N-terminal fusion proteins are grown, harvested, broken and membrane fractions expressing HST produced.
For example, 1 ng of recombinant DNA is used to transform BL21DE3 cells to obtain a plateful of individual colonies. One of these colonies is picked and used to inoculate an overnight culture of 100 ml of Luria Broth (LB) supplemented with 50 ug/ml of kanamycin at final concentration, grown at 37° C. with shaking at 220 rpm. Next morning, 10 mls of the overnight culture is used to inoculate 11 of fresh sterile LB supplemented with 50 ug/ml of kanamycin at final concentration, grown at 37° C. with shaking at 220 rpm until the OD reached 0.6 at 600 nm, induced with the addition of 0.1 mM IPTG and left to induce at 15° C. overnight. The cells are harvested by centrifugation at 4600 rpm for 10 min at 4° C. and the pellet stored at −80° C. […] E. coli cell pellet is then resuspended in 25 ml of 50 mM Tris, pH 7.5 supplemented with Roche EDTA-free protease inhibitor tablet (one tablet in 200 mls of buffer). 10 ml of cells are lysed by sonication on ice. The resultant lysed cells are centrifuged at 3000 g for 10 min to pellet the cell nuclei/debris etc. 10 mls of supernatant is aspirated and centrifuged at 150,000 g for 60 min at 4° C. The pellet containing the membranes is resuspended in 2 ml of the above buffer. These samples are stored as 100 ul aliquots at −80° C., after being diluted with addition of glycerol to 50% v/v.
as §1
The recombinant Chlamydomonas HST expressed in E. coli membranes is assayed in standard reaction mixtures with 200 μM FDP and 100 μM ^14C-homogentisate (40 dpm/pmol) in 50 mM Tricine-NaOH pH 8.5, 20 mM MgCl2. Assays are started with the addition of enzyme and run for ˜20 min at 28° C.
Recombinant Arabidopsis and Rice HSTs are expressed in insect cells. Assays are run as for Chlamydomonas HST except that assay temperature is 27° C. Assays are stopped with 300 ul of solvent mix (1:2, Chloroform:Methanol) and 100 ul of 0.5% NaCl, agitated/mixed and spun at 13,000 rpm in a benchtop eppendorf centrifuge for 5 minutes. 80 ul of the lower phase extract is loaded onto a TLC plate (silica Gel 60, 20 cm×20 cm) FLA3000 system and run for 35 minutes in dichloromethane. The radioactivity is quantified using a Fuji Phosphoimager and band intensity integrated as quantitative measure of product amount. The bands corresponding to oxidised and reduced 2-methyl-6-farnesyl-1,4-benzoquinol (MFBQ) are identified and the total of the two (oxidised and reduced) band intensities is calculated in order to estimate the total amount of MFBQ product formation. Specific activities of 8 pmol MFBQ min^−1 mg^−1 protein (23 pmol) and 7 pmol MFBQ min^−1 mg^−1 protein (14 pmol) are, for example, estimated for the GST-fusion truncated Arabidopsis HST gene (SEQ ID # 3) expressed in membranes from insect cells 4 days and 5 days after transfection respectively. Similar results are noted from past literature on E. coli expressed Arabidopsis HST. Activity from the insect cell expressed GST-fusion truncated rice HST (SEQ ID# 4) is similar. Expression of the non-truncated HST coding sequences as GST fusions also gives HST activity. […]

Row | Structure (SMILES) | Spinach chloroplast extract % I at 25 ppm [1] | inhibition at 25 ppm (Chlamydomonas HST) | Chlamydomonas. HST % I at 25 ppm (Chlamydomonas HST)
1 | Oc1c(F)c(F)nc(F)c1Br [Compound 1.3] | 65% | 55% | –
2 | COc1nc(C)nc(NC(=O)NS(=O)(=O)c2ccccc2Cl)n1 [Chlorsulfuron, reference compound] | 0% | 0% | –
3 | Oc1c(Cl)c(Cl)nc(Cl)c1Cl [Compound 1.2] | 80% | 70% | –
4 | O=S1(=O)C(c2c(Cl)ccc(Cl)c2Cl)=C(O)c2nccnc2N1CC(F)F [Compound 3.4] | 40% | – | 50%
5 | O=S1(=O)C(c2c(Cl)cccc2C(F)(F)F)=C(O)c2nccnc2N1CC(F)F [Compound 3.3] | 35% | – | 20%
6 | CCc1cc(CC)c(-c2c(O)c3nccnc3[nH]c2=O)c(CC)c1 [Compound 2.10] | 0% | – | 50%
7 | Oc1c(Br)c(F)nc(F)c1Br [Compound 1.4] | 75% | 65% | –
8 | O=c1c(-c2c(Cl)cncc2Cl)c(O)c2nccnc2n1CC(F)F [Compound 5.1] | 10% | – | 20%
9 | CCN1c2nccnc2C(O)=C(c2c(Cl)cccc2C(F)(F)F)S1(=O)=O [Compound 3.1] | 20% | – | 20%
10 | O=c1[nH]c2nccnc2c(O)c1-c1ccccc1OC(F)(F)F [Compound 2.12] | 0% | – | 0%
11 | CN1c2nccnc2C(O)=C(c2ccc(Cl)cc2Cl)S1(=O)=O [Compound 3.2] | 15% | – | 0%
